Measurements published in patent publication US5387602A, “1.5-diphenyl-3-(N-hydroxycarbamoyloxyalkyl)pyrazoles” (Ortho Pharmaceutical Corporation, priority 1993, dated 1995).

What was measured:
[1] = target: T1, RBL-1 Cell 5-Lipoxygenase (Rattus norvegicus, UniProt P12527); test: Procedure II: 5-lipoxygenase inhibition in disrupted RBL-1 cells (supernatant as enzyme source); assay type: biochemical; conditions: for IC50: read-out: IC50 5-LO (Procedure II)
T1 construct: the supernatant was saved as the source of enzymes; endogenous in cells; host or cells: RBL-1 (rat basophilic leukemia cells), 10,000×g supernatant of homogenate
T1 sequence (P12527 1-673): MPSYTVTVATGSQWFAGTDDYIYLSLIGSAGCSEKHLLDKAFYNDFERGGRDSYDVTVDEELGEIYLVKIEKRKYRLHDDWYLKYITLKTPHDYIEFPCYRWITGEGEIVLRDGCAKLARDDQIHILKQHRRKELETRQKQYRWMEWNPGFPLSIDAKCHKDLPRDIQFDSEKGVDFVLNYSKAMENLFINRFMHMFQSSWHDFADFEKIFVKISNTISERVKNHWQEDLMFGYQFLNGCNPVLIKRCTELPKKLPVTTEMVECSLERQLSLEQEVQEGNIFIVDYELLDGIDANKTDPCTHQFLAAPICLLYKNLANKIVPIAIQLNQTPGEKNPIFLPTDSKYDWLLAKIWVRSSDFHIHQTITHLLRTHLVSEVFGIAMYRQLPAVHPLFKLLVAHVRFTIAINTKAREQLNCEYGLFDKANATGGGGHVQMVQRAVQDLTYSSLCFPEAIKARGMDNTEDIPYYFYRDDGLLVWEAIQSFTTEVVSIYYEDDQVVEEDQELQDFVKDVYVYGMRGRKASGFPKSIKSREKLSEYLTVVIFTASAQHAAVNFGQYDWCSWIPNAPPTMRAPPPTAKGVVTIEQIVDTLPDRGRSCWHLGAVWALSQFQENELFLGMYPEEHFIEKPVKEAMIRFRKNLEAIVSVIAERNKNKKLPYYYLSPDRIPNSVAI
Procedure: (§1) RBL-1 Cell 5-Lipoxygenase and Cyclooxygenase
(§2) Rat basophilic leukemia cells (RBL-1; 5×10^7 viable cells/mL) were disrupted by homogenization on ice (four 20 sec bursts) with a Brinkman polytron. Complete cell breakage was verified microscopically. The homogenate was then centrifuged at 10,000×g for 48 minutes at 4° C. The pellet was discarded and the supernatant was saved as the source of enzymes. The supernatant was pre-incubated for five minutes at 37° C. in the presence of 2 mM of CaCl2 and compound or vehicle (1% DMSO). The conversion of AA into 5-LO products was initiated by adding 10 μL (50 μCi) of 1-^14 C-AA to each tube and incubated at 37° C. for 20 minutes. The reaction was stopped by adjusting the pH of each sample to 3 to 3.5 with 2M formic acid. Samples were extracted with three volumes of chloroform to isolate the products of 5-LO formed during the reaction. Fractions were dried under nitrogen, then resuspended in 40 μL of chloroform and spotted onto silica gel HL plates. The plates were developed in A-9 solvent. The dried plates were analyzed using a Bioscan Imaging TLC scanner to determine the percentage of radiolabelled AA converted to 5-HETE in each sample.
(§3) In the following tables, the superscripts indicate the number of experiments and, unless otherwise stated, the dose at which % inhibition is reported is 3 MPK.

[2] = target: T2, 5-LO in intact RBL-1 cells (Rattus norvegicus, UniProt P12527); test: Procedure III: inhibition of 5-LO in intact RBL-1 cells; assay type: cell-based
T2 construct: 5-LO and CO in intact RBL-1 cells; endogenous in cells; host or cells: RBL-1 (rat basophilic leukemia cells), intact
T2 sequence (P12527 1-673): T1 sequence (P12527 1-673)
Procedure: (§4) The ability to inhibit 5-LO and CO in intact RBL-1 cells was also evaluated. RBL-1 cells were maintained in culture in minimal essential medium (Bio*Whittaker, Walkersville, Md.), containing 12.5% fetal calf serum, 10 mg/mL streptomycin, 10 I.U./mL penicillin G, […] gentamycin and 2 mM L-glutamine (Bio*Whittaker, Walkersville, Md.). Cells were collected by centrifugation, washed once in HBSS, and resuspended at a concentration of 1×10^5 cells/mL. Cells were incubated in the presence of vehicle or drug then centrifuged at 800×g for 10 minutes at 4° C. The supernatant was removed by aspiration and the cells were resuspended in 0.5 mL of HBSS. The reaction was started by the addition of 20 μg/mL of calcium ionophore A-23187 (mixed calcium and magnesium salts, Calbiochem, La Jolla, Calif.) and allowed to proceed for 15 minutes, then stopped by plunging the tubes into a slush ice bath. The conversion of AA to 5-LO products was initiated by the addition of 10 μL (50 uCi) of 1-^14 C-AA. Products were isolated by acidification and extraction, followed by thin layer chromatography analysis as described above. Radioactive areas corresponding to authentic 5-LO and CO products were quantitated by the Bioscan 2000 Imaging System.
as §3

[3] = target: T3, RBL-1 Cell Cyclooxygenase (Rattus norvegicus, UniProt Q63921); test: Procedure II: cyclooxygenase inhibition in disrupted RBL-1 cells (supernatant as enzyme source); assay type: biochemical; conditions: for IC50: read-out: IC50 CO (Procedure II)
T3 construct: the supernatant was saved as the source of enzymes; endogenous in cells; host or cells: RBL-1 (rat basophilic leukemia cells), 10,000×g supernatant of homogenate
T3 sequence (Q63921 27-602): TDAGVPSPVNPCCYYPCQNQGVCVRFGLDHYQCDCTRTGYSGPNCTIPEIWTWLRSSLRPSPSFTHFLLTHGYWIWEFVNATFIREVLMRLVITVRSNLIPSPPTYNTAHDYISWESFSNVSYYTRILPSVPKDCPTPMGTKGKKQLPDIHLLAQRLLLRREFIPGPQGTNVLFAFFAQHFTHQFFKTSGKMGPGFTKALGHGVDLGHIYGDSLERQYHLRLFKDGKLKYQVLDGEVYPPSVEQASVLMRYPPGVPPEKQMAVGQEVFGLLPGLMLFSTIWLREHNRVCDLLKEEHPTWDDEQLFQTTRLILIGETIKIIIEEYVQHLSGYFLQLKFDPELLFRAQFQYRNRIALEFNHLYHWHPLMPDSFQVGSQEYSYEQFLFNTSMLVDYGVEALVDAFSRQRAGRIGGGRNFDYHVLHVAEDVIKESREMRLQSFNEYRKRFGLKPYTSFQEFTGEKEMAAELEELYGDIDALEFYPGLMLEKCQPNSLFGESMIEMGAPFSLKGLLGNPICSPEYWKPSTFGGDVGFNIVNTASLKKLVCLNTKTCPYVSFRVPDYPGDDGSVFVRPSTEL
Procedure: as §1, §2, §3

CO in intact RBL-1 cells = target: T4, CO in intact RBL-1 cells (Rattus norvegicus, UniProt Q63921); test: Procedure III: inhibition of CO in intact RBL-1 cells; assay type: cell-based
T4 construct: 5-LO and CO in intact RBL-1 cells; endogenous in cells; host or cells: RBL-1 (rat basophilic leukemia cells), intact
T4 sequence (Q63921 27-602): T3 sequence (Q63921 27-602)
Procedure: as §4, §3

| Structure (SMILES) | % INHIBITION 5-LO (Procedure II) [1] | IC50 [1] | IC50 [2] | % INHIBITION CO (Procedure II) [3] | IC50 [3] | IC50 (CO in intact RBL-1 cells) |
| --- | --- | --- | --- | --- | --- | --- |
| COc1ccc(-n2nc(COC(=O)NO)cc2-c2ccc(Cl)cc2)cc1 [1-A] | 20% | 1270 nM | 24200 nM | 34% | 180 nM | 1400 nM |
| COc1ccc(-n2nc(COC(=O)N(C)O)cc2-c2ccc(Cl)cc2)cc1 [1-B] | 85% | 480 nM | 6100 nM | 52% | 1400 nM | 380 nM |
| COc1ccc(-n2nc(COC(=O)N(O)C(C)C)cc2-c2ccc(Cl)cc2)cc1 [1-C] | 88% | 1020 nM | 10600 nM | 80% | 1100 nM | 540 nM |
| COc1ccc(-n2nc(COC(=O)NO)c(Br)c2-c2ccc(Cl)cc2)cc1 [1-D] | 28% | 840 nM | 25900 nM | 36% | 300 nM | 2400 nM |
| COc1ccc(-n2nc(COC(=O)N(C)O)c(Br)c2-c2ccc(Cl)cc2)cc1 [1-E] | 85% | 280 nM | 1210 nM | 43% | 170 nM | 220 nM |
| COc1ccc(-n2nc(COC(=O)N(O)C(C)C)c(Br)c2-c2ccc(Cl)cc2)cc1 [1-F] | 63% | 120 nM | 3600 nM | 0% | 880 nM | 1900 nM |
| COc1ccc(-n2nc(COC(=O)NO)c(Cl)c2-c2ccc(Cl)cc2)cc1 [1-G] | 25% | 750 nM | 15900 nM | 18% | 950 nM | 2200 nM |
| COc1ccc(-n2nc(COC(=O)N(C)O)c(Cl)c2-c2ccc(Cl)cc2)cc1 [1-H] | 83% | < 100 nM | 2000 nM | 41% | 220 nM | 390 nM |
| COc1ccc(-n2nc(COC(=O)N(O)C(C)C)c(Cl)c2-c2ccc(Cl)cc2)cc1 [1-I] | 83% | 230 nM | 2350 nM | 3% | 1630 nM | 1970 nM |
| COc1ccc(-n2nc(COC(=O)NO)cc2-c2ccc(C)cc2)cc1 [1-J] | 33% | 1750 nM | 26000 nM | 87% | 180 nM | 170 nM |
| COc1ccc(-n2nc(COC(=O)N(C)O)cc2-c2ccc(C)cc2)cc1 [1-K] | 58% | 300 nM | 3600 nM | 100% | 150 nM | 30 nM |

Further lines, results first:

| % INHIBITION 5-LO (Procedure II) [1] | IC50 [1] | IC50 [2] | % INHIBITION CO (Procedure II) [3] | IC50 [3] | IC50 (CO in intact RBL-1 cells) | Structure (SMILES) |
| --- | --- | --- | --- | --- | --- | --- |
| 86% | 480 nM | 3800 nM | 64% | 1700 nM | 20 nM | COc1ccc(-n2nc(COC(=O)N(O)C(C)C)cc2-c2ccc(C)cc2)cc1 [1-L] |
| 63% | 5300 nM | 21500 nM | 85% | 1460 nM | 860 nM | COc1ccc(-n2nc(COC(=O)NO)c(Br)c2-c2ccc(C)cc2)cc1 [1-M] |
| 74% | 410 nM | 3460 nM | 100% | 1140 nM | 80 nM | COc1ccc(-n2nc(COC(=O)N(C)O)c(Br)c2-c2ccc(C)cc2)cc1 [1-N] |
| 81% | 180 nM | 5120 nM | 82% | 3120 nM | 860 nM | COc1ccc(-n2nc(COC(=O)N(O)C(C)C)c(Br)c2-c2ccc(C)cc2)cc1 [1-O] |
| 30% | 890 nM | 17500 nM | 0% | 1090 nM | 2500 nM | COc1ccc(-n2nc(COC(=O)NO)c(Cl)c2-c2ccc(C)cc2)cc1 [1-P] |
| 88% | 50 nM | 1800 nM | 82% | 210 nM | 150 nM | COc1ccc(-n2nc(COC(=O)N(C)O)c(Cl)c2-c2ccc(C)cc2)cc1 [1-Q] |
| 87% | 100 nM | 2700 nM | 8% | 3800 nM | 4100 nM | COc1ccc(-n2nc(COC(=O)N(O)C(C)C)c(Cl)c2-c2ccc(C)cc2)cc1 [1-R] |
